This is an account of results in patent publication US7815950B2, “Ketomethionine ketals and derivatives thereof” (Evonik Degussa GmbH, priority 2006, dated 2010).

Where two headings read alike, the source gives them in different places.

For series [1] the following is noted: ruminants; published in WO 00/28835; cited from earlier work.
For series [2] the following is noted: HMBi applied to a porous support; compared with WO 00/28835; EP 1358805; cited from earlier work.
For series [3] the following is noted: European Commission report, 25 Apr. 2003; cited from earlier work.
The conditions of series [4]: in vivo; cited from earlier work.
The conditions of series [5]: feeding experiments with rodents and poultry; compared with MHA; cited from earlier work.

One may read the melting point as the temperature, or range, at which the solid turns liquid.

Consider `CSCCC(N)C(=O)OC(C)(C)C` (racemic) [D,L-tert-butylmethionine, reference compound], for which the biological value in series [1] is 80%.
The compound `CSCCC1(O)OCC(C)(C)COC1=O` (racemic) [Example 4, rac-4,4-dimethyl-7-hydroxy-7-(2-(methylthio)ethyl)-6-oxacaprolactone] registered a melting point of 109 °C.
Same read-out and setting: the same measure for `CSCCC1(C(=O)O)OCCO1` [Example 2, 2-(2-(methylthio)ethyl)-1,3-dioxolane-2-carboxylic acid]: 74 °C.
On the same count and under the same terms, as for `CSCCC12OCC(CO1)OC2=O` [Example 5, 4-(2-(methylthio)ethyl)-2,5,8-trioxabicyclo[2.2.2]octan-3-one], the figure is 39.5 °C.
`CSCCC(O)C(=O)OC(C)C` (stereo not drawn) [HMBi]: the biological value entry was “at least 50%” in series [1] and “comparable biological value” in series [2]. The “absorbed via the rumen wall” value in series [3] is reported as “approximately 50%”.
As to `CSCCC(O)C(=O)O` (stereo not drawn) [MHA, hydroxymethylthiobutyric acid], the “supplemented MHA that, after absorption in the small intestine, can pass into metabolism” value in series [4] is given as 20-40%.
On to `CSCCC(=O)C(=O)[O-].[Na+]` [sodium salt of α-ketomethionine], for which the biological value entry in series [5] is “significantly above that of MHA”.
